We go through 22 compounds from US20040198791A1 (priority 2001, published 2004).

As a reminder, the IC50 is the midpoint of a concentration-inhibition curve. Read a high IC50 as lower potency.

This assay addresses T1, human NPY Y5 receptors (Homo sapiens, UniProt Q15761).
T1 construct: expressed in transfected cells; host or cells: HEK-293
T1 sequence (Q15761 1-445): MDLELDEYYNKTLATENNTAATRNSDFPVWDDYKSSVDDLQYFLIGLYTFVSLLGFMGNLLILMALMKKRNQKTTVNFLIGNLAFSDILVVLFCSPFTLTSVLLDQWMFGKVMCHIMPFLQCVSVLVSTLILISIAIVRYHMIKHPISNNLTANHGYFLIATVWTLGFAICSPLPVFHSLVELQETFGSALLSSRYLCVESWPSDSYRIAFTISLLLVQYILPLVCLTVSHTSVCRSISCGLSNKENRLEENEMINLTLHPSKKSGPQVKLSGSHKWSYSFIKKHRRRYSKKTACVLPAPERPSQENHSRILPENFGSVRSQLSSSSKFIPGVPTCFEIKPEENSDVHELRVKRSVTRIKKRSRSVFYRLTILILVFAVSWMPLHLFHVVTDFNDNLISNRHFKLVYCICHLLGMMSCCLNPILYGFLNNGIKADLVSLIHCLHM
The experiment in a line: Inhibition of [125I]-PYY binding to HEK-293 cells expressing human NPY Y5 receptors. The following applies: HEK-293 cells stably expressing human NPY Y5 receptors, 25° C., 120 minutes. The method, then:
Effects on binding ability of PYY(peptide YY) to HEK(human embryo kidneys)-293 cells transducted with human NPY(neuropeptide Y) Y5 receptors
HEK-293 cells, which stably manifest human NPY Y5 receptors, were incubated at 25° C. for 120 minutes in the […] of test compounds in an assay medium containing 0.1 mM PMSF (phenylmethylsulfonyl fluoride), 0.05% bacitracin, 0.1% BSA (bovine serum albumin) and 25mM Tris HCl (pH 7.4). The non-specific binding was measured in the presence of […] non-labelled PYY. The reaction was terminated by rapidly filtering with Wattmann GF/C glass fiber filter with using the cell harvester. After the glass fiber filter was washed with 150 mM sodium chloride and 25 mM Tris HCl buffer solution (pH 7.4) containing 0.01% BSA, radioactivity of the […] was measured by using the γ-counter. The IC50 value of the test compound was determined by the inhibition of [^125I]-PYY binding obtained by the test compound at various concentrations. The test compound is represented with the Example number in which the compound was obtained.
`c1cncc(-c2nc3c([nH]2)-c2ccccc2CCC3)c1` [8 (7), 2-(Pyridin-3-yl)-5,6-dihydro-4H-1,3-diazabenzo[e]azulene] showed an IC50 of 0.0073 µM.
Consider `COc1ccc2c(c1)-c1nc(-c3cccnc3)[nH]c1CCC2` [8 (2), 9-Methoxy-2-(pyridin-3-yl)-3,4,5,6-tetrahydro-1,3-diazabenzo[e]azulene], for which the IC50 was found to be 0.0063 µM.
Under `Clc1ccc2c(c1)-c1[nH]c(-c3ccccc3)nc1CCC2` [Example 11, 9-chloro-2-phenyl-5,6-dihydro-4H-1,3-diazabenzo[e]azulene] stands 0.0017 µM; under `Fc1ccc2c(c1)-c1[nH]c(-c3ccccn3)nc1CCC2` [Example 9, 9-fluoro-2-(pyridin-2-yl)-5,6-dihydro-4H-1,3-diazabenzo[e]azulene], 0.046 µM; under `c1ccc(-c2nc3c([nH]2)CCOc2ccccc2-3)cc1` [8 (15), 2-Phenyl-4,5-dihydro-3H[l]benzoxepino[4,5-d]imidazole], 0.061 µM.
Under `c1ccc2c(c1)CCCc1nc(-c3ccc4c(c3)OCCO4)[nH]c1-2` [8 (9), 2-(1,4-Benzodioxan-6-yl)-5,6-dihydro-4H-1,3-diazabenzo[e]azulene] stands 0.18 µM; under `Cc1ccc2c(c1)-c1[nH]c(-c3ccccn3)nc1CCC2` [8 (12), 2-(Pyridin-2-yl)-5,6-dihydro-9-methyl-4H-1,3-diazabenzo[e]azulene], 0.032 µM; under `Cc1ccc2c(c1)-c1[nH]c(-c3ccncc3)nc1CCC2` [8 (14), 2-(Pyridin-4-yl)-5,6-dihydro-9-methyl-4H-1,3-diazabenzo[e]azulene], 0.0064 µM.
Turning to `c1ccc(-c2nc3c([nH]2)-c2ccccc2CCC3)nc1` [8 (6), 2-(Pyridin-2-yl)-5,6-dihydro-4H-1,3-diazabenzo[e]azulene], the half-maximal inhibitory concentration (IC50) was found to be 0.13 µM.
The value for `COc1ccc2c(c1)-c1nc(-c3ccncc3)[nH]c1CCC2` [Example 7, 9-methoxy-2-(pyridin-4-yl)-3,4,5,6-tetrahydro-1,3-diazabenzo[e]azulene] was 0.013 µM.
Turning to `COc1ccc2c(c1)-c1c(nc(-c3ccccc3)n1O)CCC2` [2 (1), 9-Methoxy-2-phenyl-5,6-dihydro-4H-1,3-diazabenzo[e]azulen-1-ol], the IC50 is 0.024 µM.
The value for `Fc1ccc2c(c1)-c1[nH]c(-c3ccncc3)nc1CCC2` [10 (2), 9-Fluoro-2-(pyridin-4-yl)-5,6-dihydro-4H-1,3-diazabenzo[e]azulene] was 0.013 µM; that for `COc1ccc2c(c1)-c1nc(-c3ccccn3)[nH]c1CCC2` [8 (3), 9-Methoxy-2-(pyridin-2-yl)-3,4,5,6-tetrahydro-1,3-diazabenzo[e]azulene] was 0.12 µM.
Compound `CC(C)n1nc(-c2nc3c([nH]2)-c2ccccc2CCC3)ccc1=O` [8 (10), 2-(1-Isopropyl-6-oxo-1,6-dihydropyridazin-3-yl)-5,6-dihydro-4H-1,3-diazabenzo[e]azulene] displayed an IC50 of 0.26 µM.
Under `COc1ccc2c(c1)-c1nc(-c3ccccc3)[nH]c1CC2` [8 (4), 8-Methoxy-2-phenyl-4,5-dihydronaphtho[1,2-d]imidazole] stands 0.051 µM; under `c1ccc2c(c1)CCCc1[nH]c(-c3c[nH]cn3)nc1-2` [8 (11)], 0.55 µM; under `c1ccc2c(c1)CCCc1nc(-c3ccncc3)[nH]c1-2` [8 (8), 2-(Pyridin-4-yl)-5,6-dihydro-4H-1,3-diazabenzo[e]azulene], 0.02 µM.
Consider `COc1ccc2c(c1)-c1nc(-c3ccccc3)[nH]c1CCC2` [8 (1), 9-Methoxy-2-phenyl-3,4,5,6-tetrahydro-1,3-diazabenzo[e]azulene], for which the IC50 came out at 0.025 µM.
Under `COc1ccc2c(c1)-c1c(nc(-c3ccncc3)n1O)CCC2` [Example 1, 9-methoxy-2-(pyridin-4-yl)-5,6-dihydro-4H-1,3-diazabenzo[e]azulen-1-ol] stands 0.073 µM; under `c1ccc(-c2nc3c([nH]2)-c2ccccc2CCC3)cc1` [8 (5), 2-Phenyl-5,6-dihydro-4H-1,3-diazabenzo[e]azulene], 0.0058 µM.
Under `Cc1ccc2c(c1)-c1[nH]c(-c3cccnc3)nc1CCC2` [8 (13), 2-(Pyridin-3-yl)-5,6-dihydro-9-methyl-4H-1,3-diazabenzo[e]azulene] stands 0.0023 µM.
The value for `Fc1ccc2c(c1)-c1nc(-c3cccnc3)[nH]c1CCC2` [10 (1), 9-Fluoro-2-(pyridin-3-yl)-5,6-dihydro-4H-1,3-diazabenzo[e]azulene] was 0.0069 µM.
